Data on 4 compounds can be found in patent US10028941B2, “Composition for the management of nausea and vomiting” (DUCHESNAY INC., priority 2013, dated 2018).

For series [1], the system named is nausea and vomiting of pregnancy symptoms. Kind of series: Randomized controlled efficacy trial of Diclectin vs placebo in pregnant women: plasma levels vs PUQE score. The class given is in vivo, human. The conditions noted are these: pregnant women treated with Diclectin for 14 days; FIG. 1. The method, then: A randomized controlled efficacy trial of Diclectin® vs. placebo in pregnant women was carried out as follows, with the results shown in FIG. 1.
To assess the plasma levels of Doxylamine and PLP and the severity of nausea and vomiting of pregnancy symptoms in pregnant women treated with Diclectin®.
The demographic and medical characteristics of the subjects are as described in Koren et al., Am J Obstet Gynecol 2010; 203(6):571.e1-7.
The study design is as described in Koren et al., 2010, supra. Briefly, a randomized, double-blind, multicenter placebo controlled trial studying pregnant women suffering from nausea and vomiting of pregnancy, analyzed by intention to treat. Women received Diclectin (n=131) or placebo (n=125) for 14 days. Nausea and vomiting of pregnancy symptoms were evaluated daily using the pregnancy unique quantification of emesis scale (PUQE-24, Ebrahimi et al., J Obstet Gynaecol Can. 2009 September; 31(9):803-7).

A short description of series [2]: Randomized controlled bioavailability study, three-way cross over, plasma PLP after treatments A, B, C. The conditions noted are these: for speed of increase / time of appearance of PLP in the plasma: given together with Doxylamine and Pyridoxine, R5P 40 mg, AUC 0-2 h. The method, then: The results depicted in FIGS. 2 and 3 were obtained from randomized controlled bioavailability studies in healthy women, which were carried out as follows.
To characterize the pharmacokinetic profile of Pyridoxal-5′-Phosphate (PLP) and to determine whether Riboflavin-5-phosphate (R5P), PLP or PYL in an immediate release formulation can be used to positively alter the kinetics of PLP compared to the current Diclectin® formulation (the current Diclectin® formulation is a delayed release formulation containing 10 mg Doxylamine succinate and 10 mg Pyridoxine-HCl).
Healthy female (n=12) participants between 18 and 45 years of age with a body mass index between 19 and 30 kg/m^2 were administered the treatments described below under empty stomach (fasted) conditions. Blood sampling was conducted extensively from 1 hour pre-administration until 24 hours post-administration. After a wash-out period of 21 days, dose administration and blood sampling was re-conducted as stated above. Doxylamine, Pyridoxine and Pyridoxine metabolites were measured using liquid chromatography-tandem mass spectrometry, as previously described (Nulman and Koren, Can J Clin Pharmacol Vol 16(3):e400-e406, 2009).
Three Way Cross Over Design.
Diclectin®: delayed release formulation containing 10 mg Doxylamine succinate and 10 mg Pyridoxine-HCl (PA-DR).
Immediate release: an oral solution of 20 mg Doxylamine succinate and 20 mg Pyridoxine-HCl (PA-IR).
Treatment group A: One (1) Diclectin® Tablet (current delayed release formulation of 10 mg Doxylamine and 10 mg Pyridoxine-HCl) plus an oral solution of 10 mg Doxylamine and 10 mg Pyridoxal HCl (immediate release) (PYL);
Treatment group B: One (1) Diclectin® Tablet (current delayed release formulation of 10 mg Doxylamine and 10 mg Pyridoxine-HCl) plus an oral solution of 10 mg Doxylamine and 10 mg Pyridoxal-5′-Phosphate (immediate release) (PLP);
Treatment group C: One (1) Diclectin® Tablet (current delayed release formulation of 10 mg Doxylamine and 10 mg Pyridoxine-HCl) plus an oral solution of 10 mg Doxylamine and 10 mg Pyridoxine HCl and 40 mg Riboflavin-5-phosphate (R5P) (immediate release).
Bioavailability; Tmax, Cmax and AUC0-t between each treatment. Doxylamine, and Pyridoxine and its metabolites were measured using liquid chromatography-tandem mass spectrometry, as previously described (Nulman and Koren, Can J Clin Pharmacol Vol 16 (3):e400-e406, 2009).

Series [3] is described as follows: Another study with different doses of R5P (5, 10 or 20 mg), plasma PLP levels vs controls. The format is in vivo, human. The procedure:
In another study, different doses of R5P were tested: 5, 10 or 20 mg of R5P (i.e. equivalent to the formulations administered to Treatment group C above, with the exception that 5, 10 or 20 mg of R5P was used rather than 40 mg R5P; 8 healthy women for each dose), and the PLP levels were compared to those measured in control healthy women not administered with R5P (24 subjects, equivalent to Treatment group A above).

“Also recorded” adds a separate entry of the source.

In the case of `Cc1ncc(COP(=O)(O)O)c(C=O)c1O` [PLP, Pyridoxal 5-phosphate], the “plasma concentration vs severity of NVP (PUQE score)” value in series [1] was “correlates with a reduction in the severity of NVP”.
In the case of `CN(C)CCOC(C)(c1ccccc1)c1ccccn1` (stereo not drawn) [Doxylamine, reference compound], the “plasma concentration vs severity of NVP (PUQE score)” value in series [1] is “correlates with a reduction in the severity of NVP”.
Take `Cc1ncc(CO)c(C=O)c1O` [PYL, Pyridoxal]: in series [2], the “speed of increase / time of appearance of PLP in the plasma” value is given as “did not result in such improvement”.
Consider `Cc1cc2nc3c(=O)[nH]c(=O)nc-3n(C[C@H](O)[C@H](O)[C@H](O)COP(=O)(O)O)c2cc1C` [R5P, riboflavin-5-phosphate], for which the “inter-subject variations in PLP levels” value in series [2] (administration of R5P) is reported as “less inter-subject variations”. Further, the “time to reach steady-state PLP levels” value in series [2] (administration of R5P) is “decreased time to reach steady-state PLP levels”. Also, the “speed of increase / time of appearance of PLP in the plasma” value is “faster increase in the plasma level of PLP” in series [2] and “faster time of appearance in the plasma” in series [2] (listed as FMN). In addition, the “PLP concentration (AUC) 0-12 h compared with Diclectin (PA-DR)” value in series [2] (healthy women, fasted, one-way ANOVA, FIG. 2) is “did not increase PLP levels significantly; also recorded: does not significantly affect PLP levels”. The “effect on PLP levels relative to controls” value in series [3] (5 mg R5P, 8 healthy women, controls without R5P) is listed as “no significant effect”; in series [3] (10 mg R5P, 8 healthy women, controls without R5P), “no significant effect”. In series [3] (20 mg R5P, 8 healthy women, controls without R5P), the “effect on pharmacokinetics of PLP relative to controls” value is “some improvement in the pharmacokinetics of PLP”. In addition, the “effect with 20 mg R5P compared with 40 mg R5P” value in series [3] (20 mg vs 40 mg R5P) was “lower”.
